# Source: ChEMBL document CHEMBL5344409, “Discovery of pan-IAP degraders via a CRBN recruiting mechanism” (2023)
# The source made the active and inactive calls. The calls are words filed in the database; no cut-off is given here.
# Columns and labels:
# [1] = molecular target: T1, Protein cereblon/E3 ubiquitin-protein ligase XIAP (Homo sapiens) (UniProt P98170+Q96SW2); test: PROTAC activity at CRBN/XIAP in human MCF7 cells assessed as induction of XIAP degradation at 0.1 uM measured after 18 hrs by western blot analysis; type: cell-based
# [2] = molecular target: T1, Protein cereblon/E3 ubiquitin-protein ligase XIAP (Homo sapiens); test: PROTAC activity at CRBN/XIAP in human MCF7 cells assessed as induction of XIAP degradation at 1 uM measured after 18 hrs by western blot analysis; type: cell-based
# [3] = molecular target: T2, Protein cereblon/Baculoviral IAP repeat-containing protein 3 (Homo sapiens) (UniProt Q13489+Q96SW2); test: PROTAC activity at CRBN/cIAP2 in human MCF7 cells assessed as induction of cIAP2 degradation at 0.1 uM measured after 18 hrs by western blot analysis; type: cell-based
# [4] = molecular target: T2, Protein cereblon/Baculoviral IAP repeat-containing protein 3 (Homo sapiens); test: PROTAC activity at CRBN/cIAP2 in human MCF7 cells assessed as induction of cIAP2 degradation at 1 uM measured after 18 hrs by western blot analysis; type: cell-based
# [5] = molecular target: Baculoviral IAP repeat-containing protein 2 (Homo sapiens) (UniProt Q13490); test: Induction of cIAP1 degradation in human MCF7 cells at 0.1 uM measured after 18 hrs by western blot analysis; type: cell-based
# [6] = molecular target: Baculoviral IAP repeat-containing protein 2 (Homo sapiens) (UniProt Q13490); test: Induction of cIAP1 degradation in human MCF7 cells at 1 uM measured after 18 hrs by western blot analysis; type: cell-based
# [7] = molecular target: Protein cereblon (Homo sapiens) (UniProt Q96SW2); test: Induction of CRBN degradation in human MCF7 cells by western blot analysis; type: cell-based
# [8] = molecular target: Baculoviral IAP repeat-containing protein 2 (Homo sapiens) (UniProt Q13490); test: Induction of cIAP1 degradation in human MCF7 cells by western blot analysis; type: cell-based
# [9] = molecular target: T2, Protein cereblon/Baculoviral IAP repeat-containing protein 3 (Homo sapiens); test: PROTAC activity at CRBN/cIAP2 in human MCF7 cells assessed as induction of cIAP2 degradation by western blot analysis; type: cell-based
# MCF7 [10] = test: Induction of apoptosis in human MCF7 cells assessed as increase in caspase 7 cleavage at 0.1 uM measured after 18 hrs by western blot analysis; type: functional, cell-based
# MCF7 [11] = test: Induction of apoptosis in human MCF7 cells assessed as increase in PARP cleavage at 0.1 uM measured after 18 hrs by western blot analysis; type: functional, cell-based
# MCF7 [12] = test: Induction of apoptosis in human MCF7 cells assessed as increase in total apoptotic cells at 1 uM measured after 48 hrs by AnnexinV-FITC/PI staining based flow cytometry; type: functional
# MCF7 [13] = test: Cytotoxicity against human MCF7 cells assessed as inhibition of cell growth measured after 72 hrs by CellTiter-Glo luminescent assay; type: functional
# SK-OV-3 = test: Cytotoxicity against human SK-OV-3 cells assessed as inhibition of cell growth measured after 72 hrs by CellTiter-Glo luminescent assay; type: functional, cell-based
# [14] = molecular target: Baculoviral IAP repeat-containing protein 3 (Homo sapiens) (UniProt Q13489); test: Induction of cIAP2 degradation in human MCF7 cells by western blot analysis; type: cell-based
# [15] = molecular target: T3, Protein cereblon-IAP (Homo sapiens) (UniProt P98170+Q13489+Q13490+Q96SW2); test: PROTAC activity at CRBN/IAP in human MCF7 cells assessed as inhibition of TNFalpha-induced NFkappaB activation by measuring decrease in IKKalpha/beta phosphorylation at 0.1 uM pretreated for 2 hrs followed by stimulation with TNF-alpha for 3 mins by western blot analysis; type: cell-based; details: time 123.0 min
# [16] = molecular target: T3, Protein cereblon-IAP (Homo sapiens); test: PROTAC activity at CRBN/IAP in human MCF7 cells assessed as inhibition of TNFalpha-induced NFkappaB activation by measuring decrease in IkBalpha phosphorylation at 0.1 uM pretreated for 2 hrs followed by stimulation with TNF-alpha for 3 mins by western blot analysis; type: cell-based; details: time 123.0 min
# [17] = molecular target: T3, Protein cereblon-IAP (Homo sapiens); test: PROTAC activity at CRBN/IAP in human MCF7 cells assessed as inhibition of TNFalpha-induced NFkappaB activation by measuring decrease in p65 phosphorylation at 0.1 uM pretreated for 2 hrs followed by stimulation with TNF-alpha for 3 mins by western blot analysis; type: cell-based; details: time 123.0 min
# [18] = molecular target: T3, Protein cereblon-IAP (Homo sapiens); test: PROTAC activity at CRBN/IAP in human MCF7 cells assessed as inhibition of TNFalpha-induced NFkappaB activation by measuring decrease in p38 phosphorylation at 0.1 uM pretreated for 2 hrs followed by stimulation with TNF-alpha for 3 mins by western blot analysis; type: cell-based; details: time 123.0 min
# MDA-MB-231 [19] = test: Inhibition of TNFalpha-induced cell migration in human MDA-MB-231 cells at 0.1 uM measured after 24 hrs in presence of TNFalpha by transwell assay; type: functional, cell-based
# MDA-MB-231 [20] = test: Inhibition of TNFalpha-induced cell invasion in human MDA-MB-231 cells at 0.1 uM measured after 24 hrs in presence of TNFalpha by transwell assay; type: functional, cell-based
# MDA-MB-157 [21] = test: Inhibition of TNFalpha-induced cell migration in human MDA-MB-157 cells at 0.1 uM measured after 24 hrs in presence of TNFalpha by transwell assay; type: functional, cell-based
# MDA-MB-157 [22] = test: Inhibition of TNFalpha-induced cell invasion in human MDA-MB-157 cells at 0.1 uM measured after 24 hrs in presence of TNFalpha by transwell assay; type: functional, cell-based
# T2 sequence (Q13489 whole entry, looked up): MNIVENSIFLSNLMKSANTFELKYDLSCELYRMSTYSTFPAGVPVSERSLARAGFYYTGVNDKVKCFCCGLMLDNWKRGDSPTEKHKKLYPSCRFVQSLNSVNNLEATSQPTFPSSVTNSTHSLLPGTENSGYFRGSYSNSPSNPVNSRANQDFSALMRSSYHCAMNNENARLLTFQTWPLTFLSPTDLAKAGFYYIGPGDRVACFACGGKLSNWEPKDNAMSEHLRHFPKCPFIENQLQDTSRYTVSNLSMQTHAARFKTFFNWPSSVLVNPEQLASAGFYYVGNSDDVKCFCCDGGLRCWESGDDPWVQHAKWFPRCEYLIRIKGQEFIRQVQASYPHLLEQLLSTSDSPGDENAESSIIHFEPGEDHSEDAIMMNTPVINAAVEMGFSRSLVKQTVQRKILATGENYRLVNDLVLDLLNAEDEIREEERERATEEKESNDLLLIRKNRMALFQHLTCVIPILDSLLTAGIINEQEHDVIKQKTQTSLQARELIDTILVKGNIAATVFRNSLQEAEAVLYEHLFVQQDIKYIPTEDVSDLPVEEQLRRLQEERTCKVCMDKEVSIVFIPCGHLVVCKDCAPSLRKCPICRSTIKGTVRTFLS
# T2 sequence (Q96SW2 whole entry, looked up): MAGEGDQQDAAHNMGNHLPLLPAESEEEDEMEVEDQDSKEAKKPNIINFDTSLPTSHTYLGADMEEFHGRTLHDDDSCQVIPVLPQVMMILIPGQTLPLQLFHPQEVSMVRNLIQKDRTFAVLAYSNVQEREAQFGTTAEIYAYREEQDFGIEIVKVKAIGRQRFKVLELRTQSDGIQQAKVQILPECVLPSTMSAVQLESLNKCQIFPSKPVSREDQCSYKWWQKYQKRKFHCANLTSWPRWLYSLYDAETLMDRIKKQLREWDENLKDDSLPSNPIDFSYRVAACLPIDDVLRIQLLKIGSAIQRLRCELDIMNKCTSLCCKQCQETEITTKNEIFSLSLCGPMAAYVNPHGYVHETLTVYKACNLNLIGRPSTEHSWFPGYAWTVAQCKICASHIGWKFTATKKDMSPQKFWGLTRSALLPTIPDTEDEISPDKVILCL
# Protein cereblon (Homo sapiens), sequence (Q96SW2 whole entry): as the sequence (Q96SW2 whole entry, looked up) above
# Baculoviral IAP repeat-containing protein 2 (Homo sapiens), sequence (Q13490 whole entry): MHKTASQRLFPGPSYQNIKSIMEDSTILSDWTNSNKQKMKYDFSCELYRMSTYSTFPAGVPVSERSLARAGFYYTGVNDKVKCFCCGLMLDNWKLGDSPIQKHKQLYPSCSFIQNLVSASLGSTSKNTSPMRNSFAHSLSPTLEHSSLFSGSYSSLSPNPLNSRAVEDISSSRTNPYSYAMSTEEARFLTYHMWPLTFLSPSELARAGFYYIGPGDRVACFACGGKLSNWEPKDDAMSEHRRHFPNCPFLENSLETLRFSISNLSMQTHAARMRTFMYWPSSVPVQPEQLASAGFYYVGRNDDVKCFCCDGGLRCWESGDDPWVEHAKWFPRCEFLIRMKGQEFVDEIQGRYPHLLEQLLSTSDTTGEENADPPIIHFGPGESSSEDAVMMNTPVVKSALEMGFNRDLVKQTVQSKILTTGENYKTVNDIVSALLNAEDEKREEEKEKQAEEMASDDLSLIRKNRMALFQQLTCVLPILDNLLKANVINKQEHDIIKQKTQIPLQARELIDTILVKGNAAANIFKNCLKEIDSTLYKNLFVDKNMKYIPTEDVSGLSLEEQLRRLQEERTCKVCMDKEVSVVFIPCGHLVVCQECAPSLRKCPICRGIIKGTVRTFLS
# T3 sequence (P98170 whole entry, looked up): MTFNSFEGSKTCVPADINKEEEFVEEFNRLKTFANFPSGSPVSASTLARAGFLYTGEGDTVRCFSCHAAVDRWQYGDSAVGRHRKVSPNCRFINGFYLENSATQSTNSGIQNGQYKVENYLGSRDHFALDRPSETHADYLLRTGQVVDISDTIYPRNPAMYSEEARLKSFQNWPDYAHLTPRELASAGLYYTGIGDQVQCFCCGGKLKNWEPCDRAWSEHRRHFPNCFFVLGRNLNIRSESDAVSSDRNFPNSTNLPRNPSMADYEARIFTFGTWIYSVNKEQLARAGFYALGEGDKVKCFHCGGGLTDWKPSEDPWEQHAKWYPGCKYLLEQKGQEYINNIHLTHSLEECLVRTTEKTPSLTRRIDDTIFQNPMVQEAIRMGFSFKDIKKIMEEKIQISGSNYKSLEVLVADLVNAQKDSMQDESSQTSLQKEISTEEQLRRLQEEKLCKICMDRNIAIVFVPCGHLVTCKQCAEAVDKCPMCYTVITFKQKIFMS
# T3 sequence (Q13489 whole entry, looked up): as the sequence (Q13489 whole entry, looked up) above
# T3 sequence (Q13490 whole entry, looked up): as the sequence (Q13490 whole entry) above
# T3 sequence (Q96SW2 whole entry, looked up): as the sequence (Q96SW2 whole entry, looked up) above
# T1 sequence (P98170 whole entry, looked up): as the sequence (P98170 whole entry, looked up) above
# T1 sequence (Q96SW2 whole entry, looked up): as the sequence (Q96SW2 whole entry, looked up) above
# Baculoviral IAP repeat-containing protein 3 (Homo sapiens), sequence (Q13489 whole entry): as the sequence (Q13489 whole entry, looked up) above
SMILES,Activity [1] [%],Activity [2] [%],Activity [3] [%],Activity [4] [%],Activity [5] [%],Activity [6] [%],Activity [7],further results
CN[C@@H](C)C(=O)N[C@H](C(=O)N1Cc2cc(OCCCCCCCCNC(=O)C3CCN(c4ccc5c(c4)C(=O)N(C4CCC(=O)NC4=O)C5=O)CC3)ccc2C[C@H]1C(=O)N[C@@H]1CCCc2ccccc21)C(C)(C)C (some centres undefined),95,82,98,99,96,97,inactive,–
CN[C@@H](C)C(=O)N[C@H](C(=O)N1Cc2cc(OCCOCCNC(=O)C3CCN(c4ccc5c(c4)C(=O)N(C4CCC(=O)NC4=O)C5=O)CC3)ccc2C[C@H]1C(=O)N[C@@H]1CCCc2ccccc21)C(C)(C)C (some centres undefined),0,0,99,94,94,93,inactive,–
CN[C@@H](C)C(=O)N[C@H](C(=O)N1Cc2cc(O)ccc2C[C@H]1C(=O)N[C@@H]1CCCc2ccccc21)C(C)(C)C,0,0,100,100,93,95,inactive,Activity [8]: Active; Activity [9]: Active; Activity (MCF7 [10]): Active; Activity (MCF7 [11]): Active; Activity (MCF7 [12]): 31%; GI50 (MCF7 [13]): > 500 µM; Activity (SK-OV-3): Active
CN[C@@H](C)C(=O)N[C@H](C(=O)N1Cc2cc(OCCCCCNC(=O)C3CCN(c4cccc5c4C(=O)N(C4CCC(=O)NC4=O)C5=O)CC3)ccc2C[C@H]1C(=O)N[C@@H]1CCCc2ccccc21)C(C)(C)C (some centres undefined),91,78,99,90,93,91,inactive,–
CN[C@@H](C)C(=O)N[C@H](C(=O)N1Cc2cc(OCCCCCCCCNC(=O)C3CN(c4ccc5c(c4)C(=O)N(C4CCC(=O)N(C)C4=O)C5=O)C3)ccc2C[C@H]1C(=O)N[C@@H]1CCCc2ccccc21)C(C)(C)C (some centres undefined),–,–,–,–,–,–,–,Activity [8]: Active; Activity [14]: Active; Activity (MCF7 [10]): Active; Activity (MCF7 [11]): Active; Activity (MCF7 [12]): 32%; GI50 (MCF7 [13]): 77.8 µM; Activity (SK-OV-3): Active; Activity [15]: inactive; Activity [16]: inactive; Activity [17]: inactive; Activity [18]: inactive; inhibition (MDA-MB-231 [19]): Active; inhibition (MDA-MB-231 [20]): Active; inhibition (MDA-MB-157 [21]): Active; inhibition (MDA-MB-157 [22]): Active
CN[C@@H](C)C(=O)N[C@H](C(=O)N1Cc2cc(OCCCNC(=O)C3CCN(c4ccc5c(c4)C(=O)N(C4CCC(=O)NC4=O)C5=O)CC3)ccc2C[C@H]1C(=O)N[C@@H]1CCCc2ccccc21)C(C)(C)C (some centres undefined),52,13,97,100,92,95,inactive,–

# Further lines, with some results ahead:
Activity [1] [%],Activity [2] [%],Activity [3] [%],Activity [4] [%],Activity [5] [%],Activity [6] [%],Activity [7],SMILES,further results
67,58,100,98,97,98,inactive,"CNC(C)C(=O)NC(C(=O)N1Cc2cc(OCCCCCNc3ccc4c(c3)C(=O)N(C3CCC(=O)NC3=O)C4=O)ccc2C[C@H]1C(=O)NC1CCCc2ccccc21)C(C)(C)C (single isomer, unassigned)",–
81,65,100,100,94,92,inactive,CN[C@@H](C)C(=O)N[C@H](C(=O)N1Cc2cc(OCCCCCNc3cccc4c3C(=O)N(C3CCC(=O)NC3=O)C4=O)ccc2C[C@H]1C(=O)N[C@@H]1CCCc2ccccc21)C(C)(C)C (some centres undefined),–
90,78,97,100,91,93,inactive,CN[C@@H](C)C(=O)N[C@H](C(=O)N1Cc2cc(OCCCCCNC(=O)C3CCN(c4ccc5c(c4)C(=O)N(C4CCC(=O)NC4=O)C5=O)CC3)ccc2C[C@H]1C(=O)N[C@@H]1CCCc2ccccc21)C(C)(C)C (some centres undefined),–
56,39,100,100,92,89,inactive,CN[C@@H](C)C(=O)N[C@H](C(=O)N1Cc2cc(OCCCCCNC(=O)C3CN(c4ccc5c(c4)C(=O)N(C4CCC(=O)NC4=O)C5=O)C3)ccc2C[C@H]1C(=O)N[C@@H]1CCCc2ccccc21)C(C)(C)C (some centres undefined),–
83,73,100,100,89,91,inactive,CN[C@@H](C)C(=O)N[C@H](C(=O)N1Cc2cc(OCCCCCNC(=O)COc3ccc4c(c3)C(=O)N(C3CCC(=O)NC3=O)C4=O)ccc2C[C@H]1C(=O)N[C@@H]1CCCc2ccccc21)C(C)(C)C (some centres undefined),–
87,65,100,100,91,92,inactive,CN[C@@H](C)C(=O)N[C@H](C(=O)N1Cc2cc(OCCCCCNC(=O)CNc3ccc4c(c3)C(=O)N(C3CCC(=O)NC3=O)C4=O)ccc2C[C@H]1C(=O)N[C@@H]1CCCc2ccccc21)C(C)(C)C (some centres undefined),–
